# Source: patent publication US20130189246A1, “TREATMENT OF OPHTHALMIC CONDITIONS WITH FLUORENONE DERIVATIVES” (The Trustees of Columbia University in the City of New York, priority 2009, published 2013)
# How the values were obtained:
# glial cell = settings: central nervous system; reported; cited from earlier work
# [1] = test system: bovine RPE-choroid complex; assay: Water transport across ex vivo bovine RPE-choroid complex in Ussing-type chamber; format: cell-based
# Procedure: The effect of DPOFA was examined in an ex vivo bovine RPE-choroid complex model.
# Ringer's solution contained 120 mM NaCl, 5 mM KCl, 23 mM NaHCO3, 1 mM MgCl2, 1.8 mM CaCl2, 2.0 mM taurine, and 10 mM glucose at pH 7.4. The osmolariy of the solution was 295±5 mOsM. The solution was placed in the cell culture incubator set at 37° C. with 5% CO2. The solution was kept in the incubator for at least 2 says before use. Glutathione at final concentration of 1 mM was added to solutions minutes before the use in water transport experiments.
# To prepare 5.5 ml of the 108 mM DPOFA stock solution, 220 mg of DPOFA was weighted. Four milliliters of water was added to the drug followed by addition of 104 microliters of 5M NaCl solution. Small magnetic stirring bar was placed to the drug suspension followed by immersion of the pH electrode. Slow addition of 1N NaOH solution began with careful pH monitoring. NaOH was added until pH reached the 7.2-7.4 range at which point the drug was completely dissolved. pH electrode and magnetic stirring bar were removed, and the volume was adjusted to 5.5 ml. The stock was aliquoted and stored at −20° C. Working DPOFA dilutions were made in Ringer's solution or in PBS.
# An Ussing-type chamber was used to assess water transport across tissues preparations. Three hours before the experiment two Ussing-like chambers were assembled and filled with phosphate buffered saline. The cambers were placed on the thermo-jacketed stand to pre-warm the chambers to the 37° C.
# Bovine eyes were obtained from the local abattoir and placed to the cold Ringer's solution containing 120 mM NaCl, 5 mM KCl, 23 mM NaHCO3, 1 mM MgCl2, 1.8 mM CaCl2, 2.0 mM taurine, and 10 mM glucose pH 7.4. Eyes were transferred to the lab within 2-3 hours after enucleation and rinsed repeatedly in Ringer's solution. Excessive muscle and connective tissue were trimmed at room temperature. The enucleated eye was dissected at pars plana, and the anterior portion was discarded along with the vitreous. If sensory retina detached during the removal of vitreous, the eye was considered unusable and was discarded. After the removal of vitreous, the posterior portion of the eye with the attached neuroretina was visually examined to locate the area not containing large blood vessels in the sclera. Using a size 13 brass cork bore, the selected area was punched through using a hammer.
# The resulting tissue “button” was placed in a Petri dish containing Ringer's solution. The neuroretina was carefully peeled off and discarded. The flat circular sheet of the RPE-choroid tissue was carefully removed with forceps, placed on the flat spoon and transported to the Petri dish where the “basal” round window of the Ussing-type chamber (containing metal mesh) was placed and covered with Ringer's solution. The choroid-RPE circular sheet was placed on the metal mesh of the“basal” window with choroid side down. The RPE side of the RPE-choroid sheet was covered with the nylon mesh shown, followed by clipping with the “apical” portion of the Ussing-type chamber window.
# The pre-warmed Ussing-like chambers were removed from the thermo-jacketed stand, freed from the PBS solution, and disassembled. […]
# Pre-warmed Ringer's solution was added first to the apical side and then to the basal side of the chamber. The temperature within the chambers was checked and if it reached 35° C., the electrical resistance was measured using the modified electrode and the DVC-1000 Voltage/Current Clamp instrument (WPI, Inc.). […]
structure (smiles),measurement,setting,value
"CCC[C@]12CCC(=O)C=C1c1c(cc(OCC(=O)O)c(Cl)c1Cl)C2 [DPOFA, [(R)-(+)-(5,6-dichloro 2,3,9,9a-tetrahydro 3-oxo-9a-propyl-1H-fluoren-7-yl)oxy]acetic acid]",inhibition of glial cell swelling and reactive gliosis,glial cell,effective inhibitor of glial cell swelling and reactive gliosis
same,stimulation of water transport across the bovine RPE-choroid complex,"[1]; ex vivo, apical to basal side, overall result",stimulated water transport
same,water transport at 6 μM compared with the higher concentrations,"[1]; first experiment, FIG. 1, 6 μM vs 20 μM and 60 μM",more significant transport of water than 20 μM and 60 μM
same,transport of water from apical to basal side (upward shift of basal capillary meniscus),"[1]; first experiment, FIG. 1, 6 μM, 20 μM, 60 μM DPOFA",stimulated significant increase in transport of water
same,movement of water from apical to basal side,"[1]; second experiment, FIG. 2, 6 μM, 20 μM, 60 μM DPOFA",increased the movement of water
same,concentration giving the strongest stimulation of water transport,"[1]; second experiment, FIG. 2, 6, 20, 60 μM tested",6 µM
